Read-outs that look alike come from different tables or passages of the source.

Experiment [1] has as its target PRMT1 (Homo sapiens, UniProt Q99873). Nature of the experiment: AlphaLISA PRMT1 activity assay (H4R3me). Conditions: for IC50: AlphaLISA, hPRMT1, 10-concentration mode, threefold dilutions starting at 100 μM; for LE: ligand efficiency calculated from PRMT1 IC50 as a surrogate for KD.
Protocol: Then, we resolved to determine their effect on the catalytic activity of human recombinant PRMT1, chosen as representative of class I PRMTs. […] PRMT1 activity assays were performed by taking advantage of the AlphaLISA homogeneous proximity assay.
The reaction was incubated for 60 min, and then it was stopped by the addition of 5 μL of antimethyl-histone H4 arginine 3 (H4R3me) AlphaLISA acceptor beads (PerkinElmer, #AL150) (final concentration, 20 μg/mL) diluted in Epigenetic Buffer 1X (PerkinElmer, #AL008).
For each incubation step, the OptiPlate was sealed with protective foil to prevent evaporation and contamination. Donor and acceptor beads were added in subdued light.
The 100% activity (positive control) was reached using the vehicle (DMSO) while the 0% activity (negative control) was obtained without the protein. Data were analyzed using Excel software. Values obtained for each compound are mean ± SD determined for three separate experiments.
The target of experiment [2] is T1, human PRMT4 (full length) (Homo sapiens, UniProt Q86X55).
T1 construct: Full-length recombinant PRMT4 (Active motif, # 81107); purchased Active motif # 81107
T1 sequence (Q86X55 1-608): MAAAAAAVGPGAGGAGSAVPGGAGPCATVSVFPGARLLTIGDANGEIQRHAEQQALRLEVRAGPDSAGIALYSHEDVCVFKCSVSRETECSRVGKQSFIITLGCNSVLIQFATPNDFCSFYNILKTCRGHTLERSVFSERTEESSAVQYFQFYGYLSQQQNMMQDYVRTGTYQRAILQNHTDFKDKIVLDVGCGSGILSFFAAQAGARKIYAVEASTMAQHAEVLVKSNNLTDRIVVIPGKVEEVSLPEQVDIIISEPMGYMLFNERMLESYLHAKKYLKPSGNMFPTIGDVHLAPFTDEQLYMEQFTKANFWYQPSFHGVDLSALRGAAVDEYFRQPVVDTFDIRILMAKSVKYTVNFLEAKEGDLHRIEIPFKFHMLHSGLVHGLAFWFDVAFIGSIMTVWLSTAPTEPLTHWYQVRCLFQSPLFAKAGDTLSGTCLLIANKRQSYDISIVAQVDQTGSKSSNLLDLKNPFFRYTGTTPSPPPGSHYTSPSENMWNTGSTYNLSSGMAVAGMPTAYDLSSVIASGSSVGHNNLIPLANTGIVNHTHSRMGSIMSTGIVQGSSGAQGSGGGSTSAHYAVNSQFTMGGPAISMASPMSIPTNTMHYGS
The experiment in a line: SPR binding to immobilized PRMT4. The method, then:
To this aim, human PRMT4 (full length) was covalently immobilized on a sensor chip surface using an amine-coupling approach, and the three compounds were injected at different concentrations over the protein surface. To reduce false positives from detergent-sensitive, nonspecific aggregation-based binding, detergents (0.05% Tween-20) were added to the running buffer in all experiments.
SPR experiments were performed on a Biacore T200 biosensor (Cytiva). PBS buffer (phosphate-buffered saline, pH 7.4) supplemented with 0.05% Tween-20 was used as the running buffer. […] One flow cell was left empty for background subtractions. […] Each compound was tested in […], prepared starting from 640 to 10 nM. Binding experiments were performed at 25 °C by using a flow rate of 30 μL/min, with 90 s monitoring of association and 90 s monitoring of dissociation. Regeneration of the surfaces was performed, when necessary, by a 10 s injection of 5 mM NaOH. […] The corrected sensorgrams for each compound were fitted simultaneously using a 1:1 Langmuir model to obtain equilibrium dissociation constants (KD) and kinetic dissociation (koff) and association (kon) constants.
For orientation: Surface plasmon resonance follows binding to a sensor surface in real time, without labels.

[3] abbreviates: read-out: % PRMT1 residual activ. @ 100 μM.
[4] abbreviates: read-out: % PRMT1 residual activity at 100 uM.

Sequence of PRMT1 (Q99873 whole entry): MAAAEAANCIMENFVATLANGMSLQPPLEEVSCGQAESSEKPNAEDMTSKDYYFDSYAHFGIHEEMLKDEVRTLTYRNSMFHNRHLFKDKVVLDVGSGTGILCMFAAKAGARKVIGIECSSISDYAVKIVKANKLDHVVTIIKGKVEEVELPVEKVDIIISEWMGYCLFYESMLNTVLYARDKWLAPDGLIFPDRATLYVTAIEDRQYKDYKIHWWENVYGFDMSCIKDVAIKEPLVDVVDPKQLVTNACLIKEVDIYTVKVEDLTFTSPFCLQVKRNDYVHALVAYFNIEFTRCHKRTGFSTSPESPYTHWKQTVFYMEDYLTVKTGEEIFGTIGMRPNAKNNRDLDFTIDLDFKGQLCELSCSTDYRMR

For `COC(=O)c1cc(O)c2cc(NC(=O)CCCCNC(=N)N)ccc2c1` [5a, Methyl 6-(5-Guanidinopentanamido)-4-hydroxy-2-naphthoate], the remaining activity at 100 µM in experiment [1] (setting [3]) and in experiment [1] (setting [4]) was 35 ± 0.3% each time.

What is called IC50 is the concentration at which inhibition is half-maximal. A lower IC50 goes with higher potency. For the compound `COC(=O)c1cc(O)c2cc(NC(=O)CCCCCCNC(=N)N)ccc2c1` [5c, Methyl 6-(7-Guanidinoheptanamido)-4-hydroxy-2-naphthoate], in experiment [1], half-maximal inhibition (IC50) was put at 3800 nM and the LE is on record as 0.27. Besides, the remaining activity at 100 µM in experiment [1] (setting [3]) was -0.49 ± 0.1%. The remaining activity at 100 µM in experiment [1] (setting [4]) is -0.49 ± 0.1%.

Regarding `COC(=O)c1cc(O)c2cc(NC(=O)CCCCNC3=NCCN3)ccc2c1` [5g, Methyl 6-(5-((4,5-Dihydro-1H-imidazol-2-yl)amino)pentanamido)-4-hydroxy-2-naphthoate], the remaining activity at 100 µM in experiment [1] (setting [3]) and in experiment [1] (setting [4]) was 122 ± 5.8% in each case.

Consider `N=C(N)NCCCCC(=O)Nc1ccc2cc(C(=O)O)cc(O)c2c1` [6a, 6-(5-Guanidinopentanamido)-4-hydroxy-2-naphthoic Acid], for which the remaining activity at 100 µM in experiment [1] (setting [3]) and in experiment [1] (setting [4]) was 69.7 ± 2% in each case.

On to `N=C(N)NCCCCCC(=O)Nc1ccc2cc(C(=O)O)cc(O)c2c1` [6b, 6-(6-Guanidinohexanamido)-4-hydroxy-2-naphthoic Acid], for which the remaining activity at 100 µM in experiment [1] (setting [3]) and in experiment [1] (setting [4]) was 65.9 ± 1% in each case.

Regarding `CNC(=N)NCCCCCC(=O)Nc1ccc2cc(C(=O)O)cc(O)c2c1` [6d, 4-Hydroxy-6-(6-(3-methylguanidino)hexanamido)-2-naphthoic Acid], the remaining activity at 100 µM in experiment [1] (setting [3]) and in experiment [1] (setting [4]) was 50.4 ± 0.2% each time.

Turning to `CN(C)C(=N)NCCCCC(=O)Nc1ccc2cc(C(=O)O)cc(O)c2c1` [6e, 6-(5-(3,3-Dimethylguanidino)pentanamido)-4-hydroxy-2-naphthoic Acid], the remaining activity at 100 µM in experiment [1] (setting [3]) and in experiment [1] (setting [4]) was 36.8 ± 0.3% throughout.

As for `O=C(CCCCNC1=NCCN1)Nc1ccc2cc(C(=O)O)cc(O)c2c1` [6f, 6-(5-((4,5-Dihydro-1H-imidazol-2-yl)amino)pentanamido)-4-hydroxy-2-naphthoic Acid], the remaining activity at 100 µM in experiment [1] (setting [3]) and in experiment [1] (setting [4]) was 25.1 ± 1.5% each time.

With `COC(=O)c1cc(O)c2cc(NC(=O)NCCCNC(=N)N)ccc2c1` [7a, Methyl 6-(3-(3-Guanidinopropyl)ureido)-4-hydroxy-2-naphthoate], in experiment [1], 1600 nM corresponded to half-maximal inhibition (IC50) and the LE is 0.31. Moreover, the remaining activity at 100 µM in experiment [1] (setting [3]) was found to be 0.4 ± 0.1%. In addition, the remaining activity at 100 µM in experiment [1] (setting [4]) was found to be 0.4 ± 0.1%.

In experiment [1], `COC(=O)c1cc(O)c2cc(NC(=O)NCCCCCNC(=N)N)ccc2c1` [7c, Methyl 6-(3-(5-Guanidinopentyl)ureido)-4-hydroxy-2-naphthoate] had an IC50 of 1200 nM. In addition, the LE in experiment [1] was 0.30. Besides, the remaining activity at 100 µM in experiment [1] (setting [3]) and in experiment [1] (setting [4]) was -0.91 ± 0.1% in each case.

Regarding `CNC(=N)NCCCNC(=O)Nc1ccc2cc(C(=O)OC)cc(O)c2c1` [7d, Methyl 4-Hydroxy-6-(3-(3-(3-methylguanidino)propyl)ureido)-2-naphthoate], in experiment [1], the IC50 came out at 400 nM and the LE is 0.33. Further, in experiment [1] (setting [3]), the remaining activity at 100 µM was found to be 0.2 ± 0.1%. Besides, in experiment [1] (setting [4]), the remaining activity at 100 µM amounted to 0.2 ± 0.1%.

Consider `COC(=O)c1cc(O)c2cc(NC(=O)NCCCn3ccnc3)ccc2c1` [7f, Methyl 6-(3-(3-(1H-Imidazol-1-yl)propyl)ureido)-4-hydroxy-2-naphthoate], for which the remaining activity at 100 µM in experiment [1] (setting [3]) and in experiment [1] (setting [4]) was 65.6 ± 2.1% in each case.

In the case of `N=C(N)NCCCCNC(=O)Nc1ccc2cc(C(=O)O)cc(O)c2c1` [8a, 6-(3-(4-Guanidinobutyl)ureido)-4-hydroxy-2-naphthoic Acid], the remaining activity at 100 µM in experiment [1] (setting [3]) and in experiment [1] (setting [4]) was 31.5 ± 3.1% throughout.

For `O=C(NCCCn1ccnc1)Nc1ccc2cc(C(=O)O)cc(O)c2c1` [8b, 6-(3-(3-(1H-Imidazol-1-yl)propyl)ureido)-4-hydroxy-2-naphthoic Acid], the remaining activity at 100 µM in experiment [1] (setting [3]) and in experiment [1] (setting [4]) was 36.9 ± 10.5% throughout.

As to `COC(=O)c1cc(O)c2cc(NC(=O)[C@@H](N)CCSC)ccc2c1` [9c, Methyl (S)-6-(2-Amino-4-(methylthio)butanamido)-4-hydroxy-2-naphthoate], the remaining activity at 100 µM in experiment [1] (setting [3]) and in experiment [1] (setting [4]) was 92.1 ± 15.8% each time.

Consider `COC(=O)c1cc(O)c2cc(NC(=O)[C@H](CCSC)NC(=O)Nc3ccc(OC)cc3)ccc2c1` [9d, Methyl (S)-4-Hydroxy-6-(2-(3-(4-methoxyphenyl)ureido)-4-(methylthio)butanamido)-2-naphthoate], for which the remaining activity at 100 µM in experiment [1] (setting [3]) and in experiment [1] (setting [4]) was 75.9 ± 4.8% each time.

`COC(=O)c1cc(O)c2cc(NC(=O)CNC(=O)Nc3ccc(OC)cc3)ccc2c1` [10c, Methyl 4-Hydroxy-6-(2-(3-(4-methoxyphenyl)ureido)acetamido)-2-naphthoate]: the remaining activity at 100 µM in experiment [1] (setting [3]) and in experiment [1] (setting [4]) was 87.1 ± 2.9% throughout.

Regarding `COC(=O)c1cc(O)c2cc(NC(=O)[C@@H](N)CCCNC(=N)N)ccc2c1` [11c, Methyl (S)-6-(2-Amino-5-guanidinopentanamido)-4-hydroxy-2-naphthoate], the remaining activity at 100 µM in experiment [1] (setting [3]) and in experiment [1] (setting [4]) was 34.2 ± 5.1% throughout.

One may read the Kd as the equilibrium constant for the complex coming apart. The koff is a measure of how fast the partners let go of each other. High values mean fast dissociation, low ones slow dissociation. In general, kon refers to the rate constant with which the complex forms. In experiment [2], `C[S+](CC[C@H](N)C(=O)[O-])C[C@H]1O[C@@H](n2cnc3c(N)ncnc32)[C@H](O)[C@@H]1O` (stereo partly drawn) [SAM, S-adenosyl-L-methionine, reference compound] came in with a Kd of 9.6 nM. In experiment [2] (SPR, immobilized PRMT4), this compound returned a koff of 0.003 s⁻¹. Moreover, the kon in experiment [2] (SPR, immobilized PRMT4, read-out: kon) was 290000 M⁻¹ s⁻¹. In addition, in experiment [2] (in vitro residence time, τ = 1/koff), the “τR” value came out at 333.3 s.

(Values after publication PMC9469100, “Turning Nonselective Inhibitors of Type I Protein Arginine Methyltransferases into Potent and Selective Inhibitors of Protein Arginine Methyltransferase 4 through a Deconstruction–Reconstruction and Fragment-Growing Approach” (Journal of Medicinal Chemistry, 2022).)
